Assay results published in US20250280827A1, “An antifungal composition comprising natamycin and at least one insecticide” (priority 2021, published 2025).

How the values were obtained:
Assay type in all cases: in vivo
Colletotrichum spp. = assay: Antifungal effect against Colletotrichum infection on wounded skin of pepper fruits (Colby synergy)
Excerpt: wherein X and Y are the observed antifungal activities (in %) of the individual active ingredients x and y, respectively. If the observed antifungal activity (O in %) of the combination exceeds the expected antifungal activity (E in %) of the combination and the synergy factor O/E is thus >1.0, the combined application of the active ingredients leads to a synergistic antifungal effect. […]
For the treatment, 5 wounds per pepper side were done as previously described. In addition, one wound was done as negative control. Depending on the number of sides of the pepper, 3 to 4 treatments were done per paprika. Per wound 10 μl of treatment was placed on the wound. The treatments were let to dry in a down flow cabinet for about 30 minutes. After drying 5 μl spore suspension at a concentration of 10^7 spores per ml were placed on the wounds. The fungus was isolated from Colletotrichum-infected plant material and identified using techniques known to the person skilled in the art. The pepper were placed as described previously in a transparent container, with the difference that the containers were then placed in a transparent plastic zipper bag. The bags with peppers were placed at room temperature and in the dark for two days. After that the size of the lesions were measured. Assessment of the infection area was 4 days after inoculation. Experiment was performed in 5-fold.
(§1) The fungus was isolated from Colletotrichum-infected plant material and identified using techniques known to the person skilled in the art. Assessment of the infection area was performed 5 days after inoculation. Experiment was performed in 5-fold.
as §1, with “The active ingredient imidacloprid was formulated as described in Table 2. Imidacloprid belonging to IRAC Group 4. The” for “The”
The fungus was isolated from Colletotrichum-infected plant material and identified using techniques known to the person skilled in the art. Assessment of the efficacy was 5 days after inoculation. Experiment was performed in 5-fold.
The fungus was isolated from Colletotrichum-infected plant material and identified using techniques known to the person skilled in the art. Assessment of the infection area was performed 6 days after inoculation. Experiment was performed in 5-fold.
The fungus was isolated from Colletotrichum-infected plant material and identified using techniques known to the person skilled in the art. Assessment of the infection area was performed 4 days after inoculation. Experiment was performed in 5-fold.

Botrytis cinerea = assay: Antifungal effect against Botrytis cinerea infection on wounded peel of banana fruits (Colby synergy)
Excerpt: (§2) wherein X and Y are the observed antifungal activities (in %) of the individual active ingredients x and y, respectively. If the observed antifungal activity (O in %) of the combination exceeds the expected antifungal activity (E in %) of the combination and the synergy factor O/E is thus >1.0, the combined application of the active ingredients leads to a synergistic antifungal effect.
(§3) Application: The broad bean pods were washed under tap water, and were subsequently surface sterilized by placing them in a 0.1% sodium hypochlorite solution for 5 minutes. The pods were then rinsed with tap water and dried. Transparent plastic containers were prepared by placing a piece of absorbing paper in the container and adding 25 ml of water, one container per treatment was used. The pods were cut in two, and two halve pods were incubated per box. The skin of broad bean pods was damaged with a needle, ø 2 mm and to a depth of about 3 mm into the fruit, with—depending on the size of the pod—2 to 4 wounds per half pod. In total, 6 wounds were incubated per treatment, of which 1 was used as a control. A volume of 20 microliter of a natamycin/insecticide composition, as presented herein above, was applied by pipette to each wound. The treatments were then left to air-dry. Once dried, a mycelium plug of Sclerotinia sclerotiorum was placed upside down on each wound, so that the mycelium was in direct contact with the wound. Per treatment 5 wounds were inoculated with the fungus, while the 6th and last wound was used as negative non-inoculated control. After inoculation, the containers were directly closed with a transparent plastic lid.
The infection area was measured 5 days after inoculation.
A few changes were made for the banana experiments: 5 wounds per banana were made, on each wound 40 microliter of treatments was pipetted. The treatments were then left to air-dry. Once dried, 2 microliter of a freshly prepared inoculum was pipetted on four of the wounds. The inoculum consists of […] potato dextrose broth (PDB) medium containing Botrytis cinerea spores at a concentration of 10^6 spores per ml. The fifth wound was used as negative non-inoculated control. Experiment was performed in 4-fold.
Assessment of the infection area was performed 3 days after inoculation. Experiment was performed in 4-fold.
Imidacloprid was formulated as described in Table 2. Assessment of the efficacy was 5 days after inoculation. Experiment was performed in 4-fold.

Sclerotinia sclerotiorum = assay: Antifungal effect against Sclerotinia sclerotiorum infection on wounded skin of broad bean pods (rot area, Colby synergy)
Excerpt: The Colby equation (Colby, 1967. Weeds 15:20-22) calculates the expected antifungal activity (E in %) of a combination comprising more than one active ingredients:
as §2
• 1) Control (without natamycin and lambda-cyhalothrin) • 2) Natamycin at a level of 15 ppm • 3) Lambda-cyhalothrin (in the product KARATE ZEON® of Syngenta) at a levels of 0.15 ppm, 0.6 ppm, 3 ppm and 15 ppm • 4) Natamycin at a level of 15 ppm combined with lambda-cyhalothrin at levels of 0.15 ppm, 0.6 ppm, 3 ppm or 15 ppm.
Used pathogen: Sclerotinia sclerotiorum.
as §3
All pods were kept at room temperature (20° C.). Wounds of the pods were checked after 30 h of incubation.
Replicates: All treatments for the broad bean pod experiment were performed on two individual pod halves resulting in 5 wounds per treatment, while a sixth wound served as control.
The experiments were performed as described in Example 1.
The experiments were performed as described in Example 1. Assessment of the infection area was 23 h after inoculation. Experiment was performed in 5-fold.
The experiments were performed as described in Example 1. Thiamethoxam belongs to IRAC Group 4. Assessment of the infection area was 31 hours after inoculation. Experiment was performed in 5-fold.
The experiments were performed as described in Example 1. The product SPECTRE® of company (Adama) containing the active ingredient chlorfenapyr belonging to IRAC Group 13 was tested. Assessment of the infection area was 23 hours after inoculation. Experiment was performed in 5-fold.

[1] = natamycin:fipronil 0:0.01 ppm, 6 days after inoculation, Table 19
[2] = natamycin:fipronil 0:0.04 ppm, 6 days after inoculation, Table 19
[3] = natamycin:fipronil 0:1 ppm, 6 days after inoculation, Table 19
[4] = natamycin-insecticide 0:0.004 ppm, 3 days after inoculation, Table 14B
[5] = natamycin-insecticide 0:0.01 ppm, 3 days after inoculation, Table 14A
[6] = natamycin-insecticide 0:0.04 ppm, 3 days after inoculation, Table 14A
[7] = natamycin-insecticide 0:1 ppm, 3 days after inoculation, Table 14A
[8] = natamycin-insecticide 0:0.01 ppm, 5 days after inoculation, Table 15
[9] = natamycin-insecticide 0:0.04 ppm, 5 days after inoculation, Table 15
[10] = natamycin-insecticide 0:1 ppm, 5 days after inoculation, Table 15
[11] = natamycin-insecticide 0-0.15 ppm, 23 h after inoculation, Table 7
[12] = natamycin-insecticide 0-0.6 ppm, 23 h after inoculation, Table 7
[13] = natamycin-insecticide 0-3 ppm, 23 h after inoculation, Table 7
[14] = natamycin-insecticide 0-15 ppm, 23 h after inoculation, Table 7
[15] = natamycin-insecticide 0:0.01 ppm, 5 days after inoculation, Table 17
[16] = natamycin-insecticide 0:0.04 ppm, 5 days after inoculation, Table 17
[17] = natamycin-insecticide 0:1 ppm, 5 days after inoculation, Table 17
[18] = natamycin-insecticide 0-0.15 ppm, 23 hours after inoculation, Table 9
[19] = natamycin-insecticide 0-0.6 ppm, 23 hours after inoculation, Table 9
[20] = natamycin-insecticide 0-3 ppm, 23 hours after inoculation, Table 9
[21] = natamycin-insecticide 0-15 ppm, 23 hours after inoculation, Table 9
[22] = natamycin-insecticide 0:0.004 ppm, 5 days after inoculation, Table 18B
[23] = natamycin-insecticide 0:0.01 ppm, 5 days after inoculation, Table 18A
[24] = natamycin-insecticide 0:0.04 ppm, 5 days after inoculation, Table 18A
[25] = natamycin-insecticide 0:1 ppm, 5 days after inoculation, Table 18A
[26] = natamycin-insecticide 0:0.01 ppm, 5 days after inoculation, Table 16
[27] = natamycin-insecticide 0:0.04 ppm, 5 days after inoculation, Table 16
[28] = natamycin-insecticide 0-0.15 ppm, 31 hours after inoculation, Table 8
[29] = natamycin-insecticide 0-0.6 ppm, 31 hours after inoculation, Table 8
[30] = natamycin-insecticide 0-3 ppm, 31 hours after inoculation, Table 8
[31] = natamycin-insecticide 0-15 ppm, 31 hours after inoculation, Table 8
[32] = natamycin:abamectin 0:0.01 ppm, 4 days after inoculation, Table 20
[33] = natamycin:abamectin 0:0.04 ppm, 4 days after inoculation, Table 20
[34] = natamycin-insecticide 0:0.01 ppm, 4 days after inoculation, Table 13
[35] = natamycin-insecticide 0:0.04 ppm, 4 days after inoculation, Table 13
[36] = natamycin-insecticide 0:1 ppm, 4 days after inoculation, Table 13

N#Cc1nn(-c2c(Cl)cc(C(F)(F)F)cc2Cl)c(N)c1[S+]([O-])C(F)(F)F (racemic) [fipronil, (±)-5-amino-1-(2,6-dichloro-α,α,α-trifluoro-p-tolyl)-4-trifluoromethyl sulfinylpyrazole-3-carbonitrile]
Avg infected area (Colletotrichum spp.; [1]): 88.2 mm^2 | Observed antifungal activity (Colletotrichum spp.; [1]): −76.1% | Avg infected area (Colletotrichum spp.; [2]): 76.8 mm^2 | Observed antifungal activity (Colletotrichum spp.; [2]): −53.4% | Avg infected area (Colletotrichum spp.; [3]): 80.4 mm^2 | Observed antifungal activity (Colletotrichum spp.; [3]): −60.5%

CC1(C)[C@H](C(=O)O[C@H](C#N)c2cccc(Oc3ccccc3)c2)[C@@H]1C=C(Cl)Cl [alpha-cypermethrin, [(S)-cyano-(3-phenoxyphenyl)methyl] (1R,3R)-3-(2,2-dichloroethenyl)-2,2-dimethylcyclopropane-1-carboxylate]
Avg infected area (Botrytis cinerea; [4]): 6.2 mm2 | Observed antifungal activity (Botrytis cinerea; [4]): 37.2% | Avg infected area (Botrytis cinerea; [5]): 9.0 mm2 | Observed antifungal activity (Botrytis cinerea; [5]): 20.5% | Avg infected area (Botrytis cinerea; [6]): 9.1 mm2 | Observed antifungal activity (Botrytis cinerea; [6]): 19.8% | Avg infected area (Botrytis cinerea; [7]): 9.9 mm2 | Observed antifungal activity (Botrytis cinerea; [7]): 12.8% | Avg infected area (Colletotrichum spp.; [8]): 44.8 mm2 | Observed antifungal activity (Colletotrichum spp.; [8]): −6.1% | Avg infected area (Colletotrichum spp.; [9]): 22.5 mm2 | Observed antifungal activity (Colletotrichum spp.; [9]): 46.7% | Avg infected area (Colletotrichum spp.; [10]): 20.6 mm2 | Observed antifungal activity (Colletotrichum spp.; [10]): 51.2%

C/C=C(\C)C(=O)O[C@H]1C[C@@H](OC(C)=O)[C@@]2(C(=O)OC)CO[C@H]3[C@@H](O)[C@@](C)([C@]45O[C@@]4(C)[C@H]4C[C@@H]5O[C@@H]5OC=C[C@@]54O)[C@H]4[C@]1(CO[C@]4(O)C(=O)OC)[C@@H]32 [azadirachtin]
Avg infected area (Sclerotinia sclerotiorum; [11]): 80.2 mm2 | Observed antifungal activity (Sclerotinia sclerotiorum; [11]): 41.3% | Avg infected area (Sclerotinia sclerotiorum; [12]): 82.0 mm2 | Observed antifungal activity (Sclerotinia sclerotiorum; [12]): 40% | Avg infected area (Sclerotinia sclerotiorum; [13]): 98.3 mm2 | Observed antifungal activity (Sclerotinia sclerotiorum; [13]): 28.1% | Avg infected area (Sclerotinia sclerotiorum; [14]): 123.1 mm2 | Observed antifungal activity (Sclerotinia sclerotiorum; [14]): 9.9%

CNC(=O)c1cc(Cl)cc(C)c1NC(=O)c1cc(Br)nn1-c1ncccc1Cl [chlorantraniliprole, 5-bromo-N-[4-chloro-2-methyl-6-(methylcarbamoyl)phenyl]-2-(3-chloropyridin-2-yl) pyrazole-3-carboxamide]
Avg infected area (Colletotrichum spp.; [15]): 38.8 mm2 | Observed antifungal activity (Colletotrichum spp.; [15]): 29.8% | Avg infected area (Colletotrichum spp.; [16]): 55.6 mm2 | Observed antifungal activity (Colletotrichum spp.; [16]): −0.7% | Avg infected area (Colletotrichum spp.; [17]): 66.4 mm2 | Observed antifungal activity (Colletotrichum spp.; [17]): −20.2%

CCOCn1c(-c2ccc(Cl)cc2)c(C#N)c(Br)c1C(F)(F)F [chlorfenapyr]
Avg infected area (Sclerotinia sclerotiorum; [18]): 86.9 mm2 | Observed antifungal activity (Sclerotinia sclerotiorum; [18]): 23.6% | Avg infected area (Sclerotinia sclerotiorum; [19]): 71.3 mm2 | Observed antifungal activity (Sclerotinia sclerotiorum; [19]): 37.3% | Avg infected area (Sclerotinia sclerotiorum; [20]): 92.3 mm2 | Observed antifungal activity (Sclerotinia sclerotiorum; [20]): 18.8% | Avg infected area (Sclerotinia sclerotiorum; [21]): 94.9 mm2 | Observed antifungal activity (Sclerotinia sclerotiorum; [21]): 16.5%

O=[N+]([O-])NC1=NCCN1Cc1ccc(Cl)nc1 [imidacloprid, N-[1-[(6-chloropyridin-3-yl)methyl]-4,5-dihydroimidazol-2-yl]nitramide]
Avg infected area (Botrytis cinerea; [22]): 16.6 mm2 | Observed antifungal activity (Botrytis cinerea; [22]): 43.3% | Avg infected area (Botrytis cinerea; [23]): 35.6 mm2 | Observed antifungal activity (Botrytis cinerea; [23]): 27.6% | Avg infected area (Botrytis cinerea; [24]): 53.2 mm2 | Observed antifungal activity (Botrytis cinerea; [24]): −8.3% | Avg infected area (Botrytis cinerea; [25]): 32.4 mm2 | Observed antifungal activity (Botrytis cinerea; [25]): 34.1% | Avg infected area (Colletotrichum spp.; [26]): 18.5 mm2 | Observed antifungal activity (Colletotrichum spp.; [26]): 56.3% | Avg infected area (Colletotrichum spp.; [27]): 23.3 mm2 | Observed antifungal activity (Colletotrichum spp.; [27]): 44.7% | Avg infected area (Colletotrichum spp.; natamycin-insecticide 0:1 ppm, 5 days after inoculation, Table 16): 27.9 mm2

CN1COCN(Cc2cnc(Cl)s2)C1=N[N+](=O)[O-] [thiamethoxam, N-[3-[(2-chloro-1,3-thiazol-5-yl)methyl]-5-methyl-1,3,5-oxadiazinan-4-ylidene]nitramide]
Avg infected area (Sclerotinia sclerotiorum; [28]): 250.6 mm2 | Observed antifungal activity (Sclerotinia sclerotiorum; [28]): 2.9% | Avg infected area (Sclerotinia sclerotiorum; [29]): 270.9 mm2 | Observed antifungal activity (Sclerotinia sclerotiorum; [29]): −4.9% | Avg infected area (Sclerotinia sclerotiorum; [30]): 253.2 mm2 | Observed antifungal activity (Sclerotinia sclerotiorum; [30]): 1.9% | Avg infected area (Sclerotinia sclerotiorum; [31]): 254.1 mm2 | Observed antifungal activity (Sclerotinia sclerotiorum; [31]): 1.6%

abamectin
Avg infected area (Colletotrichum spp.; [32]): 29.0 mm2 | Observed antifungal activity (Colletotrichum spp.; [32]): −29.3% | Avg infected area (Colletotrichum spp.; [33]): 30.7 mm2 | Observed antifungal activity (Colletotrichum spp.; [33]): −37.0%

emamectin benzoate [emamection benzoate]
Avg infected area (Colletotrichum spp.; [34]): 30.6 mm2 | Observed antifungal activity (Colletotrichum spp.; [34]): −90.1% | Avg infected area (Colletotrichum spp.; [35]): 16.6 mm2 | Observed antifungal activity (Colletotrichum spp.; [35]): −3.5% | Avg infected area (Colletotrichum spp.; [36]): 24 mm2 | Observed antifungal activity (Colletotrichum spp.; [36]): −49.1%
